In patent US12648945B2, “Compositions and methods for treating systemic lupus erythematosus” (ASCENTAGE PHARMA (SUZHOU) CO., LTD., priority 2020, dated 2026):

Tests used:
Mcl-1 = Mcl-1 (Homo sapiens, UniProt Q07820); test: FP saturation binding of fluorescent probe to Mcl-1; details: 2 nM probe
Text: Bcl-XL, and Mcl-1, respectively.

MRL/lpr mice [1] = test: Flow cytometry lymphocyte counts in PBMC, spleen and kidney of MRL/lpr mice; type: in vivo, mouse; details: 100 mg/kg po qd
Text: (§1) Female MRL/MpJ-Fas lpr/J mice (18-20 g, 7-8 weeks old) were obtained from The Jackson Laboratory. These mice are homozygous for the lymphoproliferation spontaneous mutation (Fas^lpr), and show systemic autoimmunity, massive lymphadenopathy associated with proliferation of aberrant T cells, arthritis, and immune complex glomerulonephrosis. Thus, these mice are useful as a model in the study of systemic lupus erythematosus (SLE).
(§2) Animals were housed and handled in a temperature-controlled environment with a 12-h light/12-h dark cycle. […] The protocols and procedures involving the care and use of animals were approved by the Institutional Animal Care and Use Committee (IACUC) of WuXiAppTec (Shanghai) Co., Ltd. (Shanghai, China).
The spleens and kidneys were harvested from the mice at the conclusion of the study (week 18) and digested into single-cell suspensions. Peripheral blood mononuclear cell (PBMC) were obtained after lysing red blood cells in the whole blood. Cells were stained with the following florescence-labelled antibodies: PerCP-Cyanine5.5-conjugated anti-mouse CD8a (BD Biosciences), AF700-conjugated anti-mouse CD3 (BD Biosciences), PE-eFluor610-conjugated anti-mouse B220 (BD Biosciences), e506-conjugated anti-mouse CD45 (BD Biosciences), BV605-conjugated anti-mouse CD138 (BioLegend), and BV711-conjugated anti-mouse CD4 (BioLegend).
All cells were primarily gated on live lymphocytes based on forward scatter (FCS) and side scatter (SSC). Samples were analyzed on a flow cytometer (BD FACSCalibur, USA) to count the number of each subtype of lymphocytes.
Of note, the reduction of double negative T cells were most significant compared to other lymphocytes. […] Without being bound by theory, the reduced infiltration by pro-inflammatory CD4+ cells and double-negative T cells may be responsible in part for the observed efficacy in treating lupus nephritis.

MRL/lpr mice [2] = test: Skin lesion score in MRL/lpr mouse model of SLE; type: in vivo; details: week 18, p<0.0001 vs vehicle
Text: as §1, §2
Skin lesions were scored every week starting from week 12 and were expressed using a scoring system from 0 to 4 (0—normal; 1—small lesion with diameter between 2 to 4 mm; 2—lesion area
<0.5 cm^2; 3—lesion area between 0.5 cm^2 to 1 cm^2; 4—lesion area >1 cm^2).

MRL/lpr mice [3] = test: Urine protein (Coomassie Brilliant Blue assay) in MRL/lpr mouse model of SLE; type: in vivo; details: week 18
Text: as §1, §2
Urine protein was individually evaluated in each mouse on a biweekly basis using Coomassie Brilliant Blue (CBB) assay with a urine protein test kit (Nanjing Jiancheng Biotechnology Institute, Jiangsu, China).

MRL/lpr mice [4] = test: Kidney histopathological scores of lupus nephritis in MRL/lpr mouse model of SLE; type: in vivo; details: week 18
Text: as §1, §2
At the end of the study, the spleen and lymph nodes were collected and weighed. […] The histopathological score was evaluated microscopically in a blinded manner, vide infra.
The histopathological score was evaluated microscopically in a blinded manner. The […] glomerulonephritis score (GN score) was evaluated using scoring from 0 to 4 (0—normal; 1—mild, focal or early proliferation; 2—moderate or definite proliferation and increased matrix; 3—diffuse and focal or diffuse proliferation; 4—severe diffuse proliferation with crescent/sclerosis). […]

MRL/lpr mice [5] = test: Serum anti-dsDNA autoantibody ELISA in MRL/lpr mouse model of SLE; type: in vivo; details: end of study
Text: as §1, §2
Anti-dsDNA autoantibody levels were measured by ELISA. Briefly, a 96-well flat plate was coated with 10 μg/mL calf thymus ds-DNA (Sigma-Aldrich, MA, USA) at 4° C. overnight. After washing with PBS containing 0.05% Tween 20 (PBS-T) and blocking with 1% bovine serum albumin, serum samples (4000× dilution) were added and incubated for 1 h at room temperature. […] Lastly, ultra TMB-ELISA substrate solution (Pierce Biotechnology, IL, USA) was added and incubated for another 30 min, and the OD values at […] were recorded after the reaction was stopped.

MRL/lpr mice [6] = test: Lymph node (lymphadenopathy) score in MRL/lpr mouse model of SLE; type: in vivo; details: week 18, p<0.0001 vs vehicle
Text: as §1, §2
Lymph nodes were scored weekly throughout the study, and were expressed using a scoring system from 0 to 6 based on the diameter of lymph nodes (0—normal; 1—<1 cm in one site; 2—<1 cm in two sites; 3—<1 cm in three sites; 4—>1 cm in one site and <1 cm in two sites); 5—>1 cm in two sites and <1 cm in one site; 6—>1 cm in three sites).

[7] = 30 mg/kg po qd, p<0.05 vs vehicle
[8] = 100 mg/kg po qd, p<0.0001 vs vehicle

Sequence of Mcl-1 (Q07820 whole entry): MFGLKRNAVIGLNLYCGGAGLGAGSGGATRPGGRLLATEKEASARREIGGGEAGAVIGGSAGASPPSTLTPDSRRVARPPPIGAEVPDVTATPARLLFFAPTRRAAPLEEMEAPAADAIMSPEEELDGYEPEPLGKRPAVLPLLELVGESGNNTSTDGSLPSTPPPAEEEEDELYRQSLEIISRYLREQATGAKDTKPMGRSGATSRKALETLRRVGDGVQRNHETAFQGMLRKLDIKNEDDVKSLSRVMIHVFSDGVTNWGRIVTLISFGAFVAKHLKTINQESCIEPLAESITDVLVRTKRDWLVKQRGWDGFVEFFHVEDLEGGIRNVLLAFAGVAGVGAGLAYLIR

Row | Compound | Kd (Mcl-1) | number of lymphocytes in PBMC (total, T, CD4+ T, CD8+ T, double-negative T, B, activated B, plasmablasts, plasma cells, CD138+ cells) (MRL/lpr mice [1]; week 18, PBMC (FIG. 6)) | number of pro-inflammatory CD4+ T cells and double-negative T cells in the kidney (MRL/lpr mice [1]; week 18, kidney (FIG. 8)) | number of lymphocytes in spleen (total, T, CD4+ T, CD8+ T, double-negative T, B, activated B, plasmablasts, plasma cells, CD138+ cells) (MRL/lpr mice [1]; week 18, spleen (FIG. 7)) | skin lesion score (MRL/lpr mice [2]; 30 mg/kg po qd) | skin lesion score (MRL/lpr mice [2]; 100 mg/kg po qd) | urine protein level (MRL/lpr mice [3]; [7]) | urine protein level (MRL/lpr mice [3]; [8]) | individual and total lupus nephritis pathological scores, significance (MRL/lpr mice [4]; 100 mg/kg po qd) | pathological score (glomerulonephritis, interstitial nephritis, vasculitis) (MRL/lpr mice [4]; 30 and 100 mg/kg po qd) | serum anti-dsDNA autoantibody level, % of the vehicle group (MRL/lpr mice [5]; [7]) | serum anti-dsDNA autoantibody level, % of the vehicle group (MRL/lpr mice [5]; [8]) | lymphadenopathy score (0 to 6) (MRL/lpr mice [6]; 30 mg/kg po qd) | lymphadenopathy score (0 to 6) (MRL/lpr mice [6]; 100 mg/kg po qd)
1 | Flu-BID: Fluorescein labeled BID (79-99) peptide, fluorescent probe in FP assay for Mcl-1 | 6.9 ± 0.9 nM | – | – | – | – | – | – | – | – | – | – | – | – | –
2 | O=C(NS(=O)(=O)c1ccc(NC[C@H]2COCCO2)c([N+](=O)[O-])c1)c1ccc(N2CCN(CC3=C(c4ccc(Cl)cc4)CC4(CCC4)CC3)CC2)cc1Oc1cnc2[nH]ccc2c1 [Compound 1, (S)-N-((4-(((1,4-dioxan-2-yl)methyl)amino)-3-nitrophenyl)sulfonyl)-2-((1H-pyrrolo[2,3-b]pyridin-5-yl)oxy)-4-(4-((6-(4-chlorophenyl)spiro[3.5]non-6-en-7-yl)methyl)piperazin-1-yl)benzamide] | – | significantly reduced | significantly reduced | significantly reduced | significantly reduced | significantly reduced | 536.1 ± 146.8 mg/L | 266.8 ± 37.7 mg/L | Statistical significance was achieved | dose-dependently reduced | 76.8% | 56.4% | 2.7±0.4 | 1.6±0.4
